ChEMBL document CHEMBL4811221, “Diosgenin Derivatives as Potential Antitumor Agents: Synthesis, Cytotoxicity, and Mechanism of Action” (J Nat Prod, 2021)
pIC50: −log10 of the molar value.

How the values were obtained:
[1] = system: A549; assay: Cytotoxicity against human A549 cells assessed as cell growth inhibition measured after 24 hrs by MTT assay; type: functional, cell-based; conditions: A549, 24 h
[2] = system: MCF7; assay: Cytotoxicity against human MCF7 cells assessed as cell growth inhibition measured after 24 hrs by MTT assay; type: functional, cell-based; conditions: MCF7, 24 h
[3] = system: HepG2; assay: Cytotoxicity against human HepG2 cells assessed as cell growth inhibition measured after 24 hrs by MTT assay; type: functional, cell-based; conditions: HepG2, 24 h
[4] = system: L02; assay: Cytotoxicity against human L02 cells assessed as cell growth inhibition measured after 24 hrs by MTT assay; type: cell-based; conditions: L02, 24 h

Structure (SMILES) | pIC50 [1] | pIC50 [2] | pIC50 [3] | pIC50 [4]
C[C@@H]1CC[C@@]2(OC1)O[C@H]1C[C@H]3[C@@H]4CC=C5C[C@@H](OC(=O)/C=C\C(=O)N6CCc7ccccc7C6)CC[C@]5(C)[C@H]4CC[C@]3(C)[C@H]1[C@@H]2C | 5.12 |  |  | 
C[C@@H]1CC[C@@]2(OC1)O[C@H]1C[C@H]3[C@@H]4CC=C5C[C@@H](OC(=O)CCCC(=O)N6CCNCC6)CC[C@]5(C)[C@H]4CC[C@]3(C)[C@H]1[C@@H]2C | 5.49 | 5.22 | 5.70 | 4.83
C=CS(=O)(=O)N1CCN(C(=O)CCC(=O)O[C@H]2CC[C@@]3(C)C(=CC[C@H]4[C@@H]5C[C@@H]6O[C@]7(CC[C@@H](C)CO7)[C@@H](C)[C@@H]6[C@@]5(C)CC[C@@H]43)C2)CC1 | 5.39 | < 5.00 | 5.29 | 4.63
C[C@@H]1CC[C@@]2(OC1)O[C@H]1C[C@H]3[C@@H]4CC=C5C[C@@H](OC(=O)CCC(=O)N6CC[N+](Cc7ccc(C(C)(C)C)cc7)(Cc7ccc(C(C)(C)C)cc7)CC6)CC[C@]5(C)[C@H]4CC[C@]3(C)[C@H]1[C@@H]2C | 5.52 | 5.22 | 5.17 | 4.67
C[C@@H]1CC[C@@]2(OC1)O[C@H]1C[C@H]3[C@@H]4CC=C5C[C@@H](OC(=O)c6ccccc6C(=O)N6CCOCC6)CC[C@]5(C)[C@H]4CC[C@]3(C)[C@H]1[C@@H]2C |  | < 5.00 | < 5.00 | 
CCN(CC)C(=O)c1ccccc1C(=O)O[C@H]1CC[C@@]2(C)C(=CC[C@H]3[C@@H]4C[C@@H]5O[C@]6(CC[C@@H](C)CO6)[C@@H](C)[C@@H]5[C@@]4(C)CC[C@@H]32)C1 |  | < 5.00 | < 5.00 | 
CCN(CC)C(=O)CCC(=O)O[C@H]1CC[C@@]2(C)C(=CC[C@H]3[C@@H]4C[C@@H]5O[C@]6(CC[C@@H](C)CO6)[C@@H](C)[C@@H]5[C@@]4(C)CC[C@@H]32)C1 | 5.35 | < 5.00 | < 5.00 | 
COc1ccc(C[N+]2(Cc3ccc(OC)cc3)CCN(C(=O)CCC(=O)O[C@H]3CC[C@@]4(C)C(=CC[C@H]5[C@@H]6C[C@@H]7O[C@]8(CC[C@@H](C)CO8)[C@@H](C)[C@@H]7[C@@]6(C)CC[C@@H]54)C3)CC2)cc1 | 5.24 | 5.03 | 5.00 | 4.63
C[C@@H]1CC[C@@]2(OC1)O[C@H]1C[C@H]3[C@@H]4CC=C5C[C@@H](OC(=O)CCC(=O)N6CC[N+](Cc7ccc(Cl)cc7)(Cc7ccc(Cl)cc7)CC6)CC[C@]5(C)[C@H]4CC[C@]3(C)[C@H]1[C@@H]2C | 5.27 | < 5.00 | < 5.00 | 
C[C@@H]1CC[C@@]2(OC1)O[C@H]1C[C@H]3[C@@H]4CC=C5C[C@@H](OC(=O)CCC(=O)N6CCN(S(=O)(=O)O)CC6)CC[C@]5(C)[C@H]4CC[C@]3(C)[C@H]1[C@@H]2C |  | < 5.00 | < 5.00 | 
C[C@@H]1CC[C@@]2(OC1)O[C@H]1C[C@H]3[C@@H]4CC=C5C[C@@H](OC(=O)c6ccccc6C(=O)N6CCNCC6)CC[C@]5(C)[C@H]4CC[C@]3(C)[C@H]1[C@@H]2C | 5.14 | 5.09 | 5.12 | 4.56
C[C@@H]1CC[C@@]2(OC1)O[C@H]1C[C@H]3[C@@H]4CC=C5C[C@@H](OC(=O)c6ccccc6C(=O)N6CCc7ccccc7C6)CC[C@]5(C)[C@H]4CC[C@]3(C)[C@H]1[C@@H]2C |  | < 5.00 | < 5.00 | 
Cc1ccc(C[N+]2(Cc3ccc(C)cc3)CCN(C(=O)CCC(=O)O[C@H]3CC[C@@]4(C)C(=CC[C@H]5[C@@H]6C[C@@H]7O[C@]8(CC[C@@H](C)CO8)[C@@H](C)[C@@H]7[C@@]6(C)CC[C@@H]54)C3)CC2)cc1 | 5.44 | < 5.00 | 5.21 | 4.74
C[C@@H]1CC[C@@]2(OC1)O[C@H]1C[C@H]3[C@@H]4CC=C5C[C@@H](OC(=O)CCCC(=O)N6CCc7ccccc7C6)CC[C@]5(C)[C@H]4CC[C@]3(C)[C@H]1[C@@H]2C |  | < 5.00 | < 5.00 | 
CCN(CC)C(=O)/C=C\C(=O)O[C@H]1CC[C@@]2(C)C(=CC[C@H]3[C@@H]4C[C@@H]5O[C@]6(CC[C@@H](C)CO6)[C@@H](C)[C@@H]5[C@@]4(C)CC[C@@H]32)C1 | 5.15 | < 5.00 | < 5.00 | 
C[C@@H]1CC[C@@]2(OC1)O[C@H]1C[C@H]3[C@@H]4CC=C5C[C@@H](OC(=O)CCCC(=O)N6CCOCC6)CC[C@]5(C)[C@H]4CC[C@]3(C)[C@H]1[C@@H]2C | 5.07 | < 5.00 | < 5.00 | 
C[C@@H]1CC[C@@]2(OC1)O[C@H]1C[C@H]3[C@@H]4CC=C5C[C@@H](OC(=O)c6ccccc6C(=O)N6CCCC6)CC[C@]5(C)[C@H]4CC[C@]3(C)[C@H]1[C@@H]2C |  | < 5.00 | < 5.00 | 

Structure (SMILES) | pIC50 [1] | pIC50 [2] | pIC50 [3] | pIC50 [4]
C[C@@H]1CC[C@@]2(OC1)O[C@H]1C[C@H]3[C@@H]4CC=C5C[C@@H](OC(=O)/C=C\C(=O)N6CCOCC6)CC[C@]5(C)[C@H]4CC[C@]3(C)[C@H]1[C@@H]2C | 5.26 | < 5.00 | < 5.00 | 
C[C@@H]1CC[C@@]2(OC1)O[C@H]1C[C@H]3[C@@H]4CC=C5C[C@@H](OC(=O)CCC(=O)N6CCOCC6)CC[C@]5(C)[C@H]4CC[C@]3(C)[C@H]1[C@@H]2C | 5.49 | < 5.00 | 4.98 | 4.46
C[C@@H]1CC[C@@]2(OC1)O[C@H]1C[C@H]3[C@@H]4CC=C5C[C@@H](OC(=O)CCC(=O)N6CCCC6)CC[C@]5(C)[C@H]4CC[C@]3(C)[C@H]1[C@@H]2C |  | < 5.00 | < 5.00 | 
Cc1ccc(S(=O)(=O)N2CCN(C(=O)CCC(=O)O[C@H]3CC[C@@]4(C)C(=CC[C@H]5[C@@H]6C[C@@H]7O[C@]8(CC[C@@H](C)CO8)[C@@H](C)[C@@H]7[C@@]6(C)CC[C@@H]54)C3)CC2)cc1 | 5.33 | < 5.00 | < 5.00 | 
C[C@@H]1CC[C@@]2(OC1)O[C@H]1C[C@H]3[C@@H]4CC=C5C[C@@H](OC(=O)CCC(=O)N6CC[N+](Cc7ccccc7)(Cc7ccccc7)CC6)CC[C@]5(C)[C@H]4CC[C@]3(C)[C@H]1[C@@H]2C | 5.54 | 5.03 | 5.19 | 4.73
C[C@@H]1CC[C@@]2(OC1)O[C@H]1C[C@H]3[C@@H]4CC=C5C[C@@H](OC(=O)CCC(=O)N6CCc7ccccc7C6)CC[C@]5(C)[C@H]4CC[C@]3(C)[C@H]1[C@@H]2C |  | < 5.00 | < 5.00 | 
CC(=O)O[C@H]1C(=O)[C@@]2(C)[C@H]([C@H](OC(=O)c3ccccc3)[C@]3(O)C[C@H](OC(=O)[C@H](O)[C@@H](NC(=O)c4ccccc4)c4ccccc4)C(C)=C1C3(C)C)[C@]1(OC(C)=O)CO[C@@H]1C[C@@H]2O [PACLITAXEL] | 5.27 |  |  | < 4.00
C[C@@H]1CC[C@@]2(OC1)O[C@H]1C[C@H]3[C@@H]4CC=C5C[C@@H](O)CC[C@]5(C)[C@H]4CC[C@]3(C)[C@H]1[C@@H]2C [DISOGENIN] | < 5.00 | < 5.00 | < 5.00 | 
CCN(CC)C(=O)CCCC(=O)O[C@H]1CC[C@@]2(C)C(=CC[C@H]3[C@@H]4C[C@@H]5O[C@]6(CC[C@@H](C)CO6)[C@@H](C)[C@@H]5[C@@]4(C)CC[C@@H]32)C1 | 5.13 | < 5.00 | < 5.00 | 
C[C@@H]1CC[C@@]2(OC1)O[C@H]1C[C@H]3[C@@H]4CC=C5C[C@@H](OC(=O)CCC(=O)N6CCN(S(=O)(=O)C7CC7)CC6)CC[C@]5(C)[C@H]4CC[C@]3(C)[C@H]1[C@@H]2C | 5.38 | < 5.00 | < 5.00 | 
C[C@@H]1CC[C@@]2(OC1)O[C@H]1C[C@H]3[C@@H]4CC=C5C[C@@H](OC(=O)/C=C\C(=O)N6CCNCC6)CC[C@]5(C)[C@H]4CC[C@]3(C)[C@H]1[C@@H]2C |  | 5.64 | < 5.00 | 4.41
C[C@@H]1CC[C@@]2(OC1)O[C@H]1C[C@H]3[C@@H]4CC=C5C[C@@H](OC(=O)CCC(=O)N6CCN(S(=O)(=O)c7ccccc7)CC6)CC[C@]5(C)[C@H]4CC[C@]3(C)[C@H]1[C@@H]2C | 5.06 | < 5.00 | < 5.00 | 
C[C@@H]1CC[C@@]2(OC1)O[C@H]1C[C@H]3[C@@H]4CC=C5C[C@@H](OC(=O)CCC(=O)N6CCN(S(=O)(=O)c7ccc(F)cc7)CC6)CC[C@]5(C)[C@H]4CC[C@]3(C)[C@H]1[C@@H]2C | 5.43 | < 5.00 | < 5.00 | 
CCS(=O)(=O)N1CCN(C(=O)CCC(=O)O[C@H]2CC[C@@]3(C)C(=CC[C@H]4[C@@H]5C[C@@H]6O[C@]7(CC[C@@H](C)CO7)[C@@H](C)[C@@H]6[C@@]5(C)CC[C@@H]43)C2)CC1 | 5.21 | < 5.00 | < 5.00 | 
C[C@@H]1CC[C@@]2(OC1)O[C@H]1C[C@H]3[C@@H]4CC=C5C[C@@H](OC(=O)/C=C\C(=O)N6CCCC6)CC[C@]5(C)[C@H]4CC[C@]3(C)[C@H]1[C@@H]2C |  | < 5.00 | < 5.00 | 
C[C@@H]1CC[C@@]2(OC1)O[C@H]1C[C@H]3[C@@H]4CC=C5C[C@@H](OC(=O)CCCC(=O)N6CCCC6)CC[C@]5(C)[C@H]4CC[C@]3(C)[C@H]1[C@@H]2C | 5.25 | < 5.00 | 5.08 | 
